Measurements: patent US20080051420A1, “New Compounds 317” (AstraZeneca AB, priority 2006, published 2008)

Molecular target: T1, human β-secretase (Homo sapiens, UniProt P56817)
T1 construct: The soluble part of the human β-secretase (AA 1-AA 460) was cloned; made in house
Assay: TR-FRET assay (β-secretase enzyme, sBACE-Fc)
Format: biochemical
Conditions: read-out: IC50 in TR-FRET assay
Experimental: The enzyme used in the IGEN Cleavage-, Fluorescent-, TR-FRET- and BiaCore assays is described as follows:
The soluble part of the human β-secretase (AA 1-AA 460) was cloned into the ASP2-F10-1-IRES-GFP-neoK mammalian expression vector. The gene was fused to the Fc domain of IgG1 (affinity tag) and stably cloned into HEK 293 cells. Purified sBACE-Fc is stored in Tris buffer, pH 9.2 and has a purity of 95%.
Enzyme was diluted to 6 μg/mL and the substrate (Europium)[…](Qsy7) to 200 nM in reaction buffer (NaAcetate, chaps, triton x-100, EDTA pH 4.5). Compounds were diluted to the desired concentration in dimethyl sulfoxide (final dimethyl sulfoxide concentration in assay is 5%). […] Enzyme (9 μL) and 1 μL of compound in dimethyl sulfoxide was added to the plate, mixed and pre-incubated for 10 min. Substrate (10 μL) was added and the reaction proceeded in the dark for 15 min at RT. The reaction was stopped with the addition of 7 μL NaAcetate, pH 9. […] The dimethyl sulfoxide control defined the 100% activity level and 0% activity was defined by exclusion of the enzyme (using reaction buffer instead).

T1 sequence (P56817 22-460): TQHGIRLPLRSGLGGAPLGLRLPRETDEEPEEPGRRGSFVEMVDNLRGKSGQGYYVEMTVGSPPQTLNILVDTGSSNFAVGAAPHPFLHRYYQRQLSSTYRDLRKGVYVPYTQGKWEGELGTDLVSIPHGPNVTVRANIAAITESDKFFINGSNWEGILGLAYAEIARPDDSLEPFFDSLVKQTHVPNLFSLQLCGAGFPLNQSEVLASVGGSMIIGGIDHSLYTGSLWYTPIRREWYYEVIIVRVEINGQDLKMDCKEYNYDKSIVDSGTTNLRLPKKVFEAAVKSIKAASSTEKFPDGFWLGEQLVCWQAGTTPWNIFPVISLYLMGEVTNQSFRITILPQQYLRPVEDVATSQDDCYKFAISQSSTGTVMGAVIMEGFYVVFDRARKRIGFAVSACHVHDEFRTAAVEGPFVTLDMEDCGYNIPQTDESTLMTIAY

Compound | IC50 [µM]
CS(=O)(=O)Oc1ccc(C2(c3cccc(-c4cccnc4F)c3)N=C(N)N3CCN=C32)cc1 (stereo not drawn) [Example 78, 4-{5-Amino-7-[3-(2-fluoropyridin-3-yl)phenyl]-2,7-dihydro-3H-imidazo[1,5-a]imidazol-7-yl}phenyl methanesulfonate 0.5 acetate] | 0.844
CS(=O)(=O)Oc1ccc(C2(c3cccc(-c4cc(Cl)cnc4F)c3)N=C(N)N3CCN=C32)cc1 (stereo not drawn) [Example 79, 4-{5-Amino-7-[3-(5-chloro-2-fluoropyridin-3-yl)phenyl]-2,7-dihydro-3H-imidazo[1,5-a]imidazol-7-yl}phenyl methanesulfonate 0.5 acetate] | 0.436
COc1cccc(-c2cccc(C3(c4ccc(OS(=O)(=O)C(C)C)cc4)N=C(N)N4CCN=C43)c2)c1 (stereo not drawn) [Example 80, 4-[5-Amino-7-(3′-methoxybiphenyl-3-yl)-2,7-dihydro-3H-imidazo[1,5-a]imidazol-7-yl]phenyl propane-2-sulfonate 0.5 acetate] | 1.38
CC(C)S(=O)(=O)Oc1ccc(C2(c3cccc(-c4cc(Cl)cc(Cl)c4)c3)N=C(N)N3CCN=C32)cc1 (stereo not drawn) [Example 81, 4-[5-Amino-7-(3′,5′-dichlorobiphenyl-3-yl)-2,7-dihydro-3H-imidazo[1,5-a]imidazol-7-yl]phenyl propane-2-sulfonate 0.5 acetate] | 0.417
CC(C)S(=O)(=O)Oc1ccc(C2(c3cccc(-c4cccc(Cl)c4)c3)N=C(N)N3CCN=C32)cc1 (stereo not drawn) [Example 82, 4-[5-Amino-7-(3′-chlorobiphenyl-3-yl)-2,7-dihydro-3H-imidazo[1,5-a]imidazol-7-yl]phenyl propane-2-sulfonate 0.5 acetate] | 0.484
CC(C)S(=O)(=O)Oc1ccc(C2(c3cccc(-c4cccnc4)c3)N=C(N)N3CCN=C32)cc1 (stereo not drawn) [Example 83, 4-[5-Amino-7-(3-pyridin-3-ylphenyl)-2,7-dihydro-3H-imidazo[1,5-a]imidazol-7-yl]phenyl propane-2-sulfonate 0.75 acetate] | 2.51
CC(C)S(=O)(=O)Oc1ccc(C2(c3cccc(-c4cccnc4F)c3)N=C(N)N3CCN=C32)cc1 (stereo not drawn) [Example 84, 4-{5-Amino-7-[3-(2-fluoropyridin-3-yl)phenyl]-2,7-dihydro-3H-imidazo[1,5-a]imidazol-7-yl}phenyl propane-2-sulfonate 0.75 acetate] | 2.51
COc1cncc(-c2cccc(C3(c4ccc(OS(=O)(=O)C(C)C)cc4)N=C(N)N4CCN=C43)c2)c1 (stereo not drawn) [Example 85, 4-{5-Amino-7-[3-(5-methoxypyridin-3-yl)phenyl]-2,7-dihydro-3H-imidazo[1,5-a]imidazol-7-yl}phenyl propane-2-sulfonate 0.5 acetate] | 1.03
NC1=NC(c2ccc(OS(=O)(=O)C(F)(F)F)cc2)(c2cccc(-c3cccc(Cl)c3)c2)C2=NCCN12 (stereo not drawn) [Example 90, 4-[5-Amino-7-(3′-chlorobiphenyl-3-yl)-2,7-dihydro-3H-imidazo[1,5-a]imidazol-7-yl]phenyl trifluoromethanesulfonate 0.75 acetate] | 0.113
NC1=NC(c2ccccc2)(c2cccc(Br)c2)C2=NCCCN12 (stereo not drawn) [Example 98, 8-(3-Bromophenyl)-8-phenyl-2,3,4,8-tetrahydroimidazo[1,5-a]pyrimidin-6-amine] | 0.727
NC1=NC(c2cccc(Br)c2)(c2cccc(OS(=O)(=O)C(F)(F)F)c2)C2=NCCCN12 (stereo not drawn) [Example 113, 3-[6-Amino-8-(3-bromophenyl)-2,3,4,8-tetrahydroimidazo[1,5-a]pyrimidin-8-yl]phenyl trifluoromethanesulfonate] | 1.2
CS(=O)(=O)Oc1cccc(C2(c3cccc(-c4cc(C(F)(F)F)cc(C(F)(F)F)c4)c3)N=C(N)N3CCCN=C32)c1 (stereo not drawn) [Example 114, 3-{6-Amino-8-[3′,5′-bis(trifluoromethyl)biphenyl-3-yl]-2,3,4,8-tetrahydroimidazo[1,5-a]pyrimidin-8-yl}phenyl methanesulfonate] | 0.246
